Data set [1] in a line: Screening test for inhibition of precipitation or gelation of sertraline lactate when chloride is added. It counts as physicochemical.
Method: Sodium chloride was then added (as a concentrated solution) and the result observed. An excipient was considered beneficial if the solution remained clear and fluid. The more chloride that could be added to an excipient solution with the solution remaining dear, the more beneficial was the excipient.
Data set [2] can be described thus: physchem. The note with it: water.
Data set [3] in a line: physchem. The note with it: water, Sertraline Lactate Solubility, in water, excipient None.
Data set [4] can be described thus: Screening of solubilizers for sertraline lactate solubility with and without chloride. The note with it: water.
The conditions of data set [5]: oral administration of known immediate-release dosage forms, plasma; cited from earlier work.
The nature of data set [6]: clinical. The note with it: human, in vivo, 200 mg.
Method: (§1) In a subset of a larger double-blind, randomized, placebo-controlled parallel group study, healthy male human subjects were divided into two groups (Study 1). […] The tablets were administered with 50 ml water. Group B received two placebo tablets. All subjects were dosed after an overnight fast.
(§2) Analysis was carried out by capillary gas chromatography with electron capture detection. […] Tmax is the time at which Cmax is achieved.
(§3) The data from these four subjects were not included in the pharmacokinetic averages.
Data set [7] in a line: Pharmacokinetics of 200 mg sertraline delivered to various portions of the gastrointestinal tract (four-way crossover). Type of data set: in vivo. The note with it: human, plasma.
Method: Dosing was via (1) oral tablets, or (2) infusion of a solution through a nasoenteric tube into the stomach, duodenum, or ileocecal region of the small intestine, or (3) infusion into the transverse colon via anal intubation.
The infusions were administered as a 2 mg/ml solution at a rate of 20 ml/min for 5 min.
Analysis was carried out by capillary gas chromatography with electron capture detection.
The conditions of data set [8]: male, human, in vivo.
Method: as §1, §2, §3
Data set [9] is described as follows: Side effects by visual analogue scales and PK/PD plots (Study I, Study II). It counts as in vivo, human.
Method: as §1
Prior to dosing and each blood sampling time, each subject filled out a questionnaire, which consisted of a series of "Visual Analogue Scales" in which the subject was required to rate, on a scale of 0-10, the severity of certain potential side effects. The subjects were instructed that "0" indicated an absent effect and "10" indicated the worst possible effect The subjects were instructed to interpolate between 0 and 10 for moderate side effects.
A total of 30 subjects completed Study I: 15 each in Groups A and B. For each side effect evaluated at 30 time points, a total of 900 individual visual-analogue-scale evaluations were obtained.
The mark [10] stands for this setting: Group A, Ileocecal Infusion of 2 mg/ml solution.
The mark [11] stands for this setting: Group A, Stomach Infusion of 2 mg/ml solution.
The mark [12] stands for this setting: Group B, Colonic Infusion of 2 mg/ml solution.
The mark [13] stands for this setting: Group B, Duodenal Infusion of 2 mg/ml solution.

Structures can show the parent of a compound that is named as a salt. Where two headings read alike, the source gives them in different places.

For the compound `O=C1O[C@H]([C@@H](O)CO)C(O)=C1O` [Ascorbic acid], the “Observation After NaCI Addition” value in data set [1] (sertraline lactate with excipient, NaCl 100 mM) was “predpitate”.

In the case of `N[C@@H](Cc1c[nH]cn1)C(=O)O` [Histidine], the “Observation After NaCI Addition” value in data set [1] (sertraline lactate with excipient, NaCl 150 mM) is listed as “slight precipitate”.

Consider `CN[C@H]1CC[C@@H](c2ccc(Cl)c(Cl)c2)c2ccccc21` [sertraline hydrochloride], for which the solubility in [2] stood at 2.5 mg/mL.

Turning to `CN[C@H]1CC[C@@H](c2ccc(Cl)c(Cl)c2)c2ccccc21` [sertraline lactate], the “Observation After NaCI Addition” value in data set [1] (sertraline lactate in water alone (control), NaCl 38 mM) is reported as “gel/precipitate”. For the same compound, the solubility in data set [3] is about 125 mg/mL; in data set [4], 125 mg/mL.

As for `CN[C@H]1CC[C@@H](c2ccc(Cl)c(Cl)c2)c2ccccc21` [sertraline], the Tmax was 6 to 7 h in [5]; 5 h in data set [7] (setting [10]); 7 h in data set [7] (setting [11]); 4.4 h in [7] (setting [12]); 3.7 h in data set [7] (setting [13]); 7 h in data set [7] (po, Group A, Oral Tablet, group average). Further, the Tmax in data set [7] (po, Group B, Oral Tablet) came out at 6.7 h. In addition, the AUC in data set [6] was 1740 ng·h/mL; in data set [7] (setting [12]), 179 ng·h/mL; in data set [7] (setting [13]), 1270 ng·h/mL; in data set [7] (po, Group B, Oral Tablet), 1150 ng·h/mL. For the same compound, the Cmax in data set [6] (male) is about 70 ng/mL; in data set [7] (setting [10]) it was 27.3 ng/mL; in data set [7] (setting [11]) it was 35.6 ng/mL; in data set [7] (Group B, Colonic Infusion (transverse colon) of 2 mg/ml solution) it was 10.9 ng/mL; in data set [7] (setting [13]), 48.8 ng/mL; in data set [7] (po, Group A, Oral Tablet (two 100 mg immediate release tablets), group average) it was 39.9 ng/mL. Moreover, the highest level in data set [7] (po, Group B, Oral Tablet (two 100 mg immediate release tablets)) (Cmax) was 44.7 ng/mL. For the same compound, the “average Tmax” value in data set [8] came out at 6 h. The “side effect score for diarrhea vs plasma sertraline concentration curve” value in data set [9] (Study 1, 200 mg bolus dose) is listed as “clockwise hysteresis”. Also, the “PK/PD plot, average visual analogue score for nausea vs plasma sertraline concentration” value in [9] (Study I, Group A, 200 mg bolus dose, Figure 1) is listed as “clockwise hysteresis”. Besides, in [9] (Study II, 200 mg dose group), the “subjects with emesis (regurgitation)” value was “Four and four”.

Broadly, the solubility is the concentration that dissolves in the medium under given conditions. Lower therefore signals a poorly soluble substance. For orientation: Tmax means the time from dosing to the highest level. In general, AUC refers to concentration integrated over time. A lower AUC goes with less exposure. As usually defined, the Cmax is the highest concentration seen after dosing.
